# “And” between values parts separate entries of the source, which are not always exact repeats. Identical values can stand only once.
# How the values were obtained:
# [1] = Average potency of all four cell lines (P388 cell line, L1210 cell line, Molt 4/C8 cell line, CEM T-lymphocytes); type: functional; set-up: unit not given here
# [2] = tested on: L1210; assay: Cytotoxicity against murine L1210 cells.; type: functional, cell-based; conditions: Mus musculus
# [3] = tested on: P388; assay: Cytotoxicity against murine P388 cells.; type: functional, cell-based; conditions: Mus musculus
# [4] = Cytotoxicity against human Molt 4/C8 cells.; type: functional, cell-based; conditions: Molt4/C8
# [5] = tested on: CCRF-CEM; assay: Cytotoxicity against CEM T-lymphocytes.; type: functional, cell-based; conditions: Homo sapiens
# [6] = tested on: Jurkat; assay: (§1) Cytotoxicity against human Jurkat T cells.; type: functional
# [7] = tested on: Jurkat; assay: Inhibitory effect on the biosyntheses of protein using human Jurkat T cells.; type: functional
# [8] = tested on: Jurkat; assay: as §1; type: functional, cell-based
# [9] = tested on: Jurkat; assay: Inhibitory effect on the biosyntheses of RNA using human Jurkat T cells.; type: functional
# [10] = The apoptotic index [(number of human jurkat cells with apoptotic nuclei/number of cells counted) 100]; type: functional
# [11] = tested on: L1210; assay: Inhibitory effect on the biosyntheses of RNA in murine L1210 cells.; type: functional, cell-based; conditions: Mus musculus
# [12] = tested on: L1210; assay: Inhibitory effect on the biosyntheses of DNA in murine L1210 cells.; type: functional, cell-based; conditions: Mus musculus
# [13] = tested on: L1210; assay: Inhibitory effect on the biosyntheses of protein in murine L1210 cells.; type: functional, cell-based; conditions: Mus musculus
SMILES,AP [1],IC50 [2],IC50 [3],IC50 [4],IC50 [5],IC80 [6],Inhibition [7],IC50 [8],Inhibition [9],Apoptotic index [10],IC50 [11],IC50 [12],IC50 [13]
C=CC(=O)N1C/C(=C\c2ccc(OC)cc2)C(=O)/C(=C/c2ccc(OC)cc2)C1,4.36,11.8 µM,0.68 µM,2.27 µM,2.67 µM,,,,,,,,
C=CC(=O)N1C/C(=C\c2ccc(Cl)cc2)C(=O)/C(=C/c2ccc(Cl)cc2)C1,0.76,1.96 µM,0.15 µM,0.44 µM,0.49 µM,,,,,,,,
C=CC(=O)N1C/C(=C\c2ccc(Cl)c(Cl)c2)C(=O)/C(=C/c2ccc(Cl)c(Cl)c2)C1,0.92,1.52 µM,0.05 µM,1.04 µM,1.08 µM,0.94 µM,58.1%,0.58 µM,67.6%,63.5,,,
C=CC(=O)N1C/C(=C\c2ccc(F)cc2)C(=O)/C(=C/c2ccc(F)cc2)C1,1.34,3.89 µM,0.27 µM,0.41 µM,0.8 µM,,,,,,,,
O=C1/C(=C/c2ccc([N+](=O)[O-])cc2)CNC/C1=C\c1ccc([N+](=O)[O-])cc1,11.5,32.9 µM,0.2 µM,8.28 µM,4.47 µM,,,,,,276 µM,228 µM,214 µM
O=C1/C(=C/c2ccc(F)cc2)CNC/C1=C\c1ccc(F)cc1,11,,0.6 µM,,,,,,,,,,
C=CC(=O)N1C/C(=C\c2ccc([N+](=O)[O-])cc2)C(=O)/C(=C/c2ccc([N+](=O)[O-])cc2)C1,0.22,0.42 µM,0.05 µM,0.15 µM,0.26 µM,,,,,,5.73 µM,2.77 µM,3.21 µM
N[C@@H](Cc1ccc(N(CCCl)CCCl)cc1)C(=O)O,2.02,,,,,,17.3%,,85.1%,,> 100 µM,> 100 µM,94.6 µM
O=C1/C(=C/c2ccccc2)CNC/C1=C\c1ccccc1,3.03,,0.77 µM,,,,,,,,,,
COc1ccc(/C=C2\CNC/C(=C\c3ccc(OC)cc3)C2=O)cc1,174,,1.54 µM,,,,,,,,,,
C=CC(=O)N1C/C(=C\c2ccc(N3CC3)cc2)C(=O)/C(=C/c2ccc(N3CC3)cc2)C1,>353,> 500 µM,43.3 µM,369 µM,> 500 µM,,,,,,,,
C=CC(=O)N1C/C(=C\c2ccccc2)C(=O)/C(=C/c2ccccc2)C1,3.3,8.69 µM,0.5 µM,1.42 µM,1.48 µM,,,,,,,,
O=C1/C(=C/c2ccc(Cl)c(Cl)c2)CNC/C1=C\c1ccc(Cl)c(Cl)c1,47.8,129 µM,1.01 µM,40.2 µM,20.8 µM,4.83 µM,,3.09 µM,26.4% and 31.1%,48.3,,,
O=C1/C(=C/c2ccc(N3CC3)cc2)CNC/C1=C\c1ccc(N2CC2)cc1,157,240 µM,0.64 µM,226 µM,162 µM,,,,,,336 µM,> 500 µM,320 µM
O=C1/C(=C/c2ccc(Cl)cc2)CNC/C1=C\c1ccc(Cl)cc1,16.1,,0.74 µM,,,,,,,,,,
